Here are results for 22 compounds from patent US20120245137A1 (Zalicus Pharmaceuticals Ltd., priority 2009, published 2012).

Common to all, as to type: cell-based
Assay [1] concerns the target human α1G T-type channels (Homo sapiens, UniProt O43497). Nature of the assay: T-type calcium channel block, whole cell patch clamp, α1G. The settings on record: HEK cells stably expressing human α1G; mainly non-inactivated protocol; values above 10,000 nM represented as 10000. In a few lines:
(§1)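 Cells are stable HEK 293 lines carrying human α1G or α1H channels, patched in whole-cell mode. Resting block comes from the non-inactivated pre-pulse; voltage-dependent block from the inactivated protocol.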

Assay [2] deals with N-type calcium channel subunits (α1B, α2δ, and β3a) (Homo sapiens, UniProt Q00975). Nature of the assay: Block of Cav2.2 channel, whole cell voltage clamp, manual and PatchXpress. The note with it: Table 5; table follows Assay Example 3 (whole cell voltage clamp / PatchXpress); assay not given. In a few lines: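 Percent block taken as current amplitude ratio with versus without compound, applied in rising doses; IC50 fitted where one cell received multiple doses. Protocol: 50 ms pulses to +20 mV at 0.067 Hz from […] or −90 mV holding; P/n leak subtraction, no junction-potential correction; manual and PatchXpress recordings.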

Assay [3] concerns the target human α1H T-type channels (Homo sapiens, UniProt O95180). The assay can be described thus: T-type calcium channel block, whole cell patch clamp, α1H. The settings on record: HEK cells stably expressing human α1H; mainly non-inactivated protocol; values above 10,000 nM represented as 10000. In a few lines:
as §1

The structures appear in SMILES notation.

Sequence of human α1H T-type channels (O95180 whole entry): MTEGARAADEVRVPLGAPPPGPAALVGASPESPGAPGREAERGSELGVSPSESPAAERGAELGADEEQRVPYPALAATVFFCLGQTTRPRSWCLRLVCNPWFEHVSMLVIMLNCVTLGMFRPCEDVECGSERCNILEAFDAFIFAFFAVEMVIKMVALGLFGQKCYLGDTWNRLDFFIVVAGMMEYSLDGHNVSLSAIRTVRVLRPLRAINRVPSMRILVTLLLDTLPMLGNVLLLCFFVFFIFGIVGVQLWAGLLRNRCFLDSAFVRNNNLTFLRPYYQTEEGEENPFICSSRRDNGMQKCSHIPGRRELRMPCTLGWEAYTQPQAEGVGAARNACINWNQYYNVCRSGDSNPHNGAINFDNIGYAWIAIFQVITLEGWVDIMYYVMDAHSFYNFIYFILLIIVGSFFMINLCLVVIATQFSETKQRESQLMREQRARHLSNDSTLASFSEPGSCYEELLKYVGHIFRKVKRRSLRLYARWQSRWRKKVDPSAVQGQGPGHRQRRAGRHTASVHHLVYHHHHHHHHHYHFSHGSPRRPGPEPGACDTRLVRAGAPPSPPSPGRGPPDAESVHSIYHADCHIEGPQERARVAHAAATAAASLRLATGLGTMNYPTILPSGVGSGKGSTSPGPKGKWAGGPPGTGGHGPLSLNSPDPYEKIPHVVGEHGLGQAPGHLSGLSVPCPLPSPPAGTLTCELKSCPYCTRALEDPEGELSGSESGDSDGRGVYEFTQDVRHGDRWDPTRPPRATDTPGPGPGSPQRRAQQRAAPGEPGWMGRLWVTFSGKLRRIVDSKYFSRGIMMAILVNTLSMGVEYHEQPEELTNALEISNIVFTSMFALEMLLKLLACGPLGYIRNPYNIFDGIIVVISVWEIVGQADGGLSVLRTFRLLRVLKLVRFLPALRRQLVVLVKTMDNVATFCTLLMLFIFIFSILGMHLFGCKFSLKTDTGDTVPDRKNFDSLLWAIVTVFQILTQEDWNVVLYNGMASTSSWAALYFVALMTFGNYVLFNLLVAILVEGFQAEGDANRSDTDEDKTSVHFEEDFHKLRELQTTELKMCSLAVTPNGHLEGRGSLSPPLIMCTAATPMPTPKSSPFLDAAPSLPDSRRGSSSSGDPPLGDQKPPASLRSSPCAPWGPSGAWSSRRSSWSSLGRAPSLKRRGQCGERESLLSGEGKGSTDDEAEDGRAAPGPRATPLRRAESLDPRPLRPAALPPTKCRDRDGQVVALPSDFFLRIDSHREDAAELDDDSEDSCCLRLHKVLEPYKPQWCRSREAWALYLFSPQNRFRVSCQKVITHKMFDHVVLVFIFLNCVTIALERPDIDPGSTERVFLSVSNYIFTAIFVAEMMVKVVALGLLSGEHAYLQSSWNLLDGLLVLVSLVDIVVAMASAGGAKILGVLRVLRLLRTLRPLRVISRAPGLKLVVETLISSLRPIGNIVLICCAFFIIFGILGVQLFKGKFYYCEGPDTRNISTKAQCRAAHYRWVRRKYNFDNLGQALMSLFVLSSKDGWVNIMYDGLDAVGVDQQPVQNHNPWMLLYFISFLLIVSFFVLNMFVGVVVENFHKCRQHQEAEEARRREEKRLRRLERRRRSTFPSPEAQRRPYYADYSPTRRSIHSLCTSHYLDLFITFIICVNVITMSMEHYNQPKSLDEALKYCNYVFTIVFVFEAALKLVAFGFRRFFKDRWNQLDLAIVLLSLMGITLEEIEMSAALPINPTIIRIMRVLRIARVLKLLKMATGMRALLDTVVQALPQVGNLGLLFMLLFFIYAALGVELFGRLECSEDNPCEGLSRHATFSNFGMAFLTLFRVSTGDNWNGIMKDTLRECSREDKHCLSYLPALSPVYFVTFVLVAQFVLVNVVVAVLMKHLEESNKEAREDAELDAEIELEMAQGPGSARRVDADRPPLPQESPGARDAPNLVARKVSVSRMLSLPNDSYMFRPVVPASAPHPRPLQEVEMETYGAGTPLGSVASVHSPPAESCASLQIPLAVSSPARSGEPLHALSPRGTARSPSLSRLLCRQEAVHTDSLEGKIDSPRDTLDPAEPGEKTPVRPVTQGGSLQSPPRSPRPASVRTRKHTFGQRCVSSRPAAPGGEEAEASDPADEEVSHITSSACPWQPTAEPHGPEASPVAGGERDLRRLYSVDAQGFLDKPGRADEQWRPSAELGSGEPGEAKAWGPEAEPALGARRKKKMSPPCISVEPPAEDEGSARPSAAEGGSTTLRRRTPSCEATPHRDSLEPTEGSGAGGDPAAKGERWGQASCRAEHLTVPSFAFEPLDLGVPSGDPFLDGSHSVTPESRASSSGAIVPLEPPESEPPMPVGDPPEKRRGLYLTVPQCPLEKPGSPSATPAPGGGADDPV
Sequence of human α1G T-type channels (O43497 whole entry): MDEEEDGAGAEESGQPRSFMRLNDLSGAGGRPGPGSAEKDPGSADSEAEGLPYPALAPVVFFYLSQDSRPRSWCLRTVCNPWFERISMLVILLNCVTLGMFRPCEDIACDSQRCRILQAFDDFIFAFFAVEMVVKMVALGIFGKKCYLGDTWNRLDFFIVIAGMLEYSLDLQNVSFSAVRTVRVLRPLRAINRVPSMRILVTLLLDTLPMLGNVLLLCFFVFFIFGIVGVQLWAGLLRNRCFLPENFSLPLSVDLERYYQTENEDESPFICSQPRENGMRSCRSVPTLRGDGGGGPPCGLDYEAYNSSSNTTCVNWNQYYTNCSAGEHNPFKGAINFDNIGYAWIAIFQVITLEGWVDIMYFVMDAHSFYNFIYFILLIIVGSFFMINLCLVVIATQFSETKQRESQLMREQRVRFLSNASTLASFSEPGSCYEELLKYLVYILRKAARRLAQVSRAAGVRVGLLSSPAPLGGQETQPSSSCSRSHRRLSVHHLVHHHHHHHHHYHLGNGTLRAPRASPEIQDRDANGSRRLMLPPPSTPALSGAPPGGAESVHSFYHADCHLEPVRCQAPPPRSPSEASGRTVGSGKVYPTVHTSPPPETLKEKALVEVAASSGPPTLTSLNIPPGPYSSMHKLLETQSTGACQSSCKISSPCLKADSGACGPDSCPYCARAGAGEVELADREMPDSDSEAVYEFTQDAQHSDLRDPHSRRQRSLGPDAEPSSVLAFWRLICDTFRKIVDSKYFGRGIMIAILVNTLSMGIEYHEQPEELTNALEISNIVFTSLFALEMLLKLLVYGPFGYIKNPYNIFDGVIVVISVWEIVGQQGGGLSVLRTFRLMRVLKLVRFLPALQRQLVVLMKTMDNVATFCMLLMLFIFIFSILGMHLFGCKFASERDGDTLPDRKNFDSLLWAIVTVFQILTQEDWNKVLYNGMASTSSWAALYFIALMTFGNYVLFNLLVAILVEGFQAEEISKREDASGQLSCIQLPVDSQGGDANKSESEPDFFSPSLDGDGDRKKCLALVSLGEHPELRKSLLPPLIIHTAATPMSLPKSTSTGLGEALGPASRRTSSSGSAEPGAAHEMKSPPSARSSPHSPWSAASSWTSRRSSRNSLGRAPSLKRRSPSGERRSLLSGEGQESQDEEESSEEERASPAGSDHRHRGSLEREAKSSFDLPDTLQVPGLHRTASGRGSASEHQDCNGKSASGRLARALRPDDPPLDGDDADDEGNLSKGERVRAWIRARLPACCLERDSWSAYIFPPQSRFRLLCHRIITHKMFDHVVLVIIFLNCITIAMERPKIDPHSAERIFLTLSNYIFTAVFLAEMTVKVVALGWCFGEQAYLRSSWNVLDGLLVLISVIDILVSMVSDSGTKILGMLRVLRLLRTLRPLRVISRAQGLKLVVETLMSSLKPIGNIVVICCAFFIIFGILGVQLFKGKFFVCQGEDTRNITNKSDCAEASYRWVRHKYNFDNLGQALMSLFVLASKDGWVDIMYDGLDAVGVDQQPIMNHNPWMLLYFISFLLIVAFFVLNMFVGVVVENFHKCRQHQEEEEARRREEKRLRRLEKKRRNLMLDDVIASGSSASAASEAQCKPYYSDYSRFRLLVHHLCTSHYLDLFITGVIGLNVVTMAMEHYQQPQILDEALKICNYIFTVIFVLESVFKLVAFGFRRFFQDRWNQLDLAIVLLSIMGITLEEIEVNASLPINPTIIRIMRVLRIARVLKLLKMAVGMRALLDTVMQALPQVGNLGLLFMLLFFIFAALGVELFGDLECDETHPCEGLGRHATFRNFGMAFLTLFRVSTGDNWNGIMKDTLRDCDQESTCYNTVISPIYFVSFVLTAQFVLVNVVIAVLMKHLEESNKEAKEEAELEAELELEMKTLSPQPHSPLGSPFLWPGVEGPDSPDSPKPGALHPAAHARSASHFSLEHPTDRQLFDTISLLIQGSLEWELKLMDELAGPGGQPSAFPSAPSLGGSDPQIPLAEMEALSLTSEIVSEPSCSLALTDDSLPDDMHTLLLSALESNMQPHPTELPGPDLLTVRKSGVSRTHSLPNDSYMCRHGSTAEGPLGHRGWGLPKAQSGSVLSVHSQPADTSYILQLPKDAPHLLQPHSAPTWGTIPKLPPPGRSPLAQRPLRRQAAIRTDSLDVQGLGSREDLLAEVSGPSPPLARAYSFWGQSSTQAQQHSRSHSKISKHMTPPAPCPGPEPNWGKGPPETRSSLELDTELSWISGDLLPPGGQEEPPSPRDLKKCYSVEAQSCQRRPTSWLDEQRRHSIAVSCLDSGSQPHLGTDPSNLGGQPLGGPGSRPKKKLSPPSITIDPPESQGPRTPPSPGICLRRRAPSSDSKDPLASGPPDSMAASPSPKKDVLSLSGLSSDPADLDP

In the case of `O=C(N[C@H]1CC[C@@](F)(S(=O)(=O)c2cc(F)cc(C(F)(F)F)c2)CC1)c1cn2cc(C(F)(F)F)ccc2n1` [Compound 332, N-((1S,4S)-4-fluoro-4-(3-fluoro-5-(trifluoromethyl)phenylsulfonyl)cyclohexyl)-6-(trifluoromethyl)imidazo[l,2-a]pyridine-2-carboxamide], the IC50 (as a rule, the point on the concentration scale where inhibition reaches its midpoint) in assay [1] was 1560 nM; in assay [2], 620 nM; in assay [3] it was 780 nM.
As for `O=C1c2cc(C(F)(F)F)nn2CCN1[C@H]1CC[C@@](F)(S(=O)(=O)c2cc(F)cc(C(F)(F)F)c2)CC1` [Compound 333, 5-((1S,4S)-4-fluoro-4-(3-fluoro-5-(trifluoromethyl)phenylsulfonyl)cyclohexyl)-2-(trifluoromethyl)-6,7-dihydropyrazolo[l,5-a]pyrazin-4(5H)-one], the IC50 stood at 1820 nM in assay [1], 180 nM in assay [2] and 960 nM in assay [3].
For `CN(C(=O)c1ccc(F)c(C(F)(F)F)c1)[C@H]1CC[C@@](F)(S(=O)(=O)c2cc(F)cc(C(F)(F)F)c2)CC1` [Compound 334, 4-fluoro-N-((1S,4S)-4-fluoro-4-(3-fluoro-5-(trifluoromethyl)phenylsulfonyl)cyclohexyl)-N-methyl-3-(trifluorornethyl) benzamide], the IC50 in assay [1] was above 10000 nM; in assay [2] it was 360 nM; in assay [3] it was 2390 nM.
In the case of `CN(C(=O)c1ccc(F)c(Cl)c1)[C@H]1CC[C@@](F)(S(=O)(=O)c2cc(F)cc(C(F)(F)F)c2)CC1` [Compound 335, 3-chloro-4-fluoro-N-((1S,4S)-4-fluoro-4-(3-fluoro-5-(trifluoromethyl)phenylsulfonyl)cyclohexyl)-N-methylbenzamide], the IC50 in assay [1] is above 10000 nM; in assay [2], 520 nM; in assay [3], 4710 nM.
In the same order, the values of `CN(C(=O)c1ccc(C(F)(F)F)cc1S(C)(=O)=O)[C@H]1CC[C@@](F)(S(=O)(=O)c2cc(F)cc(C(F)(F)F)c2)CC1` [Compound 336, N-((1S,4S)-4-fluoro-4-(3-fluoro-5-(trifluoromethyl)phenylsulfonyl)cyclohexyl)-N-methyl-2-(methylsulfonyl)-4-(trifluoromethyl)benzamide] are 690 nM, 1060 nM and 1350 nM.
For `CN(C(=O)c1ncc(C(F)(F)F)cc1S(C)(=O)=O)[C@H]1CC[C@@](F)(S(=O)(=O)c2cc(F)cc(C(F)(F)F)c2)CC1` [Compound 337, N-((1S,4S)-4-fluoro-4-(3-fluoro-5-(trifluoromethyl)phenylsulfonyl)cyclohexyl)-N-methyl-3-(methylsulfonyl)-5-(trifluoromethyl)picolinarnide], the IC50 was above 10000 nM in assay [1], 910 nM in assay [2] and 8660 nM in assay [3].
Consider `CN(C(=O)c1cn2cc(C(F)(F)F)ccc2n1)[C@H]1CC[C@@](F)(S(=O)(=O)c2cc(F)cc(C(F)(F)F)c2)CC1` [Compound 338, N-((1S,4S)-4-fluoro-4-(3-fluoro-5-(trifluoromethyl)phenylsulfonyl)cyclohexyl)-N-methyl-6-(trifluoromethyl) imidazo[1,2-a]pyridine-2-carboxamide], for which the IC50 was above 10000 nM in assay [1], 770 nM in assay [2] and 6790 nM in assay [3].
Take `CC(C)S(=O)(=O)c1cc(C(F)(F)F)cnc1C(=O)N[C@H]1CC[C@@H](S(=O)(=O)c2cccc(C(F)(F)F)c2)CC1` [Compound 339, 3-(isopropylsulfonyl)-5-(trifluoromethyl)-N-((1S,4S)-4-(3-(trifluoromethyl)phenylsulfonyl)cyclohexyl) picolinamide]: the IC50 stood at 5270 nM in assay [1], 220 nM in assay [2] and 3330 nM in assay [3].
For `CC(C)S(=O)(=O)c1cc(C(F)(F)F)cnc1C(=O)N[C@H]1CC[C@H](S(=O)(=O)c2cccc(C(F)(F)F)c2)CC1` [Compound 340, 3-(isopropylsulfonyl)-5-(trifluoromethyl)-N-((1R,4R)-4-(3-(trifluoromethyl)phenylsulfonyl)cyclohexyl) picolinamide], the IC50 turned out to be 9870 nM in assay [1], 2010 nM in assay [2] and 3170 nM in assay [3].
Take `CC(C)S(=O)(=O)c1cc(C(F)(F)F)cnc1C(=O)N[C@H]1CC[C@H](CS(=O)(=O)c2cccc(C(F)(F)F)c2)CC1` [Compound 341, 3-(isopropylsulfonyl)-5-(trifluoromethyl)-N-((1R,4R)-4-((3-(trifluoromethyl)phenylsulfonyl)methyl)cyclohexyl)picolinamide]: the IC50 was 2190 nM in assay [1], 510 nM in assay [2] and 2020 nM in assay [3].
`CC(C)S(=O)(=O)c1cc(C(F)(F)F)cnc1C(=O)N[C@H]1CC[C@@H](CS(=O)(=O)c2cccc(C(F)(F)F)c2)CC1` [Compound 342, 3-(isopropylsulfonyl)-5-(trifluoromethyl)-N-((1S,4S)-4-((3-(trifluoromethyl)phenylsulfonyl)methyl)cyclohexyl)picolinamide]: the IC50 worked out at 1710 nM in assay [1], 720 nM in assay [2] and 760 nM in assay [3].
Taken in the same sequence, the figures for `O=C(N[C@H]1C[C@H](CS(=O)(=O)c2cccc(C(F)(F)F)c2)C1)c1ccc(Cl)c(F)c1` [Compound 343, 4-chloro-3-fluoro-N-((1R,3R)-3-((3-(trifluoromethyl)phenylsulfonyl)methyl)cyclobutyl)benzamide] were 630 nM, 1450 nM and 270 nM.
With `O=C(N[C@H]1C[C@H](CS(=O)(=O)c2cccc(C(F)(F)F)c2)C1)c1cc(F)cc(Cl)c1` [Compound 344, 3-chloro-5-fluoro-N-((1R,3R)-3-((3-(trifluoromethyl)phenylsulfonyl)methyl)cyclobutyl)benzamide], the IC50 was above 10000 nM in assay [1], 680 nM in assay [2] and above 10000 nM in assay [3].
For the compound `O=C(N[C@H]1C[C@H](CS(=O)(=O)c2cccc(C(F)(F)F)c2)C1)c1ccc(F)c(C(F)(F)F)c1` [Compound 345, 4-fluoro-3-(trifluoromethyl)-N-((1R,3R)-3-((3-(trifluoromethyl)phenylsulfonyl)methyl)cyclobutyl)benzamide], the IC50 stood at 5530 nM in assay [1], 580 nM in assay [2] and 1930 nM in assay [3].
For `O=C(N[C@H]1C[C@H](CS(=O)(=O)c2cccc(C(F)(F)F)c2)C1)c1ccc(C(F)(F)F)nc1` [Compound 346, 6-(trifluoromethyl)-N-((1R,3R)-3-((3-(trifluoromethyl)phenylsulfonyl)methyl)cyclobutyl)nicotinamide], the values for the IC50 in assay [1], in assay [2] and in assay [3] were 1260 nM, 5540 nM and 410 nM, respectively.
On to `O=C(N[C@H]1C[C@H](CS(=O)(=O)c2cccc(C(F)(F)F)c2)C1)c1ccc(C(F)(F)F)cn1` [Compound 347, 5-(trifluoromethyl)-N-((1R,3R)-3-((3-(trifluoromethyl)phenylsulfonyl)methyl)cyclobutyl)picolinamide], for which the results for the IC50 in assay [1], in assay [2] and in assay [3] were 2370 nM, 1120 nM and 260 nM, respectively.
Regarding `O=C(N[C@H]1C[C@H](CS(=O)(=O)c2cccc(C(F)(F)F)c2)C1)c1ccc(F)c(Cl)c1` [Compound 348, 3-chloro-4-fluoro-N-((1R,3R)-3-((3-(trifluoromethyl)phenylsulfonyl)methyl)cyclobutyl)benzamide], the IC50 in assay [1] is 4520 nM; in assay [2], 1030 nM; in assay [3], 540 nM.
Taken in the same sequence, the figures for `COc1cc(F)cc(C(=O)N[C@H]2C[C@H](CS(=O)(=O)c3cccc(C(F)(F)F)c3)C2)c1` [Compound 349, 3-fluoro-5-methoxy-N-((1R,3R)-3-((3-(trifluoromethyl)phenylsulfonyl)methyl)cyclobutyl)benzamide] were above 10000 nM, 890 nM and above 10000 nM.
Regarding `Cn1nc(C(F)(F)F)cc1C(=O)N[C@H]1C[C@H](CS(=O)(=O)c2cccc(C(F)(F)F)c2)C1` [Compound 350, 1-methyl-3-(trifluoromethyl)-N-((1R,3R)-3-((3-(trifluoromethyl)phenylsulfonyl)methyl)cyclobutyl)-1H-pyrazole-5-carboxamide], the values for the IC50 in assay [1], in assay [2] and in assay [3] were above 10000 nM, 1410 nM and above 10000 nM, respectively.
With `CC1(NC(=O)CN[C@H]2C[C@H](CS(=O)(=O)c3cccc(C(F)(F)F)c3)C2)CCC1` [Compound 351, N-(1-methylcyclobutyl)-2-((1R,3R)-3-((3-(trifluoromethyl)phenylsulfonyl)methyl)cyclobutylamino)acetamide], the IC50 was above 10000 nM in assay [1], 2770 nM in assay [2] and 7430 nM in assay [3].
Consider `CC(C)(C)NC(=O)CN[C@H]1C[C@H](CS(=O)(=O)c2cccc(C(F)(F)F)c2)C1` [Compound 352, N-tert-butyl-2-((1R,3R)-3-((3-(trifluoromethyl)phenylsulfonyl)methyl)cyclobutylamino)acetamide], for which the IC50 is 640 nM in assay [1], 3760 nM in assay [2] and 230 nM in assay [3].
In the same order, the values of `O=C(CN[C@H]1C[C@H](CS(=O)(=O)c2cccc(C(F)(F)F)c2)C1)NC1CCCCC1` [Compound 353, N-cyclohexyl-2-((1R,3R)-3-((3-(trifluoromethyl)phenylsulfonyl)methyl)cyclobutylamino)acetamide] are 5020 nM, 3210 nM and 1980 nM.
